The text below walks through data of publication doi:10.1101/2023.09.07.556657v1 (biorxiv, 2023).

The experiment has as its target T1, Cf-SGBP-CBMxxIV (Christiangramia forsetii, UniProt A0M709).
T1 sequence (A0M709 740-904): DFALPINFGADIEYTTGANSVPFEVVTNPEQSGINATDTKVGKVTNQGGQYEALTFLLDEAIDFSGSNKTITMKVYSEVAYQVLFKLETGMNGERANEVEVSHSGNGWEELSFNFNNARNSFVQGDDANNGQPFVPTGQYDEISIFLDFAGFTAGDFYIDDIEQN
Kind of experiment: isothermal titration calorimetry. The following applies: 293.15 K, pH 7.8, 10 mM MOPS, 100 mM NaCl; single-site model. It counts as binding. On the technique in general: Isothermal titration calorimetry measures the heat released or taken up as one component is titrated into another.

With `OC[C@H]1O[C@@H](O[C@@H]2[C@@H](O)[C@H](O[C@@H]3[C@@H](O)[C@H](O[C@@H]4[C@@H](O)[C@H](O[C@H]5[C@H](O)[C@@H](CO)OC(O)[C@@H]5O)O[C@H](CO)[C@H]4O)O[C@H](CO)[C@H]3O)O[C@H](CO)[C@H]2O)[C@H](O)[C@@H](O)[C@@H]1O` (some centres unmarked) [DP5, laminaripentaose], the Ka is listed as 1.39 (± 0.07) x10^4. For `OC[C@H]1O[C@@H](O[C@@H]2[C@@H](O)[C@H](O[C@@H]3[C@@H](O)[C@H](O[C@@H]4[C@@H](O)[C@H](O[C@@H]5[C@@H](O)[C@H](O[C@@H]6[C@@H](O)[C@H](O[C@H]7[C@H](O)[C@@H](CO)OC(O)[C@@H]7O)O[C@H](CO)[C@H]6O)O[C@H](CO)[C@H]5O)O[C@H](CO)[C@H]4O)O[C@H](CO)[C@H]3O)O[C@H](CO)[C@H]2O)[C@H](O)[C@@H](O)[C@@H]1O` (some centres unmarked) [DP7, laminariheptaose], the Ka is 1.87 (± 0.17) x10^4.
